One test concerns Danio rerio embryo. Put plainly: BMC10 any morphological effect or mortality at 120 hpf; higher = less toxic. The procedure:
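ZBEscreen: dechorionated Tropical 5D zebrafish embryos were exposed from 4 hpf in 96-well plates (1% DMSO, 28 °C). All compounds were first tested at 100 µM; hits were retested at 0.005-100 µM. Morphology and mortality were scored at 120 hpf and fitted as BMC10 (3-parameter log-logistic, extra risk). The embryonic photomotor response at 24 hpf and the larval photomotor response at 120 hpf are given as lowest effect levels (K-S test, p<0.01). NA = not significant up to 100 µM; NT = not tested.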

The subject of the next test is HL-60. Put plainly: Cell Health Index (toxicity pseudo-probability over dose series) (index 0-1); higher = more cytotoxic / cell stress.
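Wherever Cell Health Index (toxicity pseudo-probability over dose series) is given: HL-60 cells exposed 4 h at 37 °C to ten threefold dilutions spanning 5 nM to 100 µM, multiparametric flow cytometry features scored by machine-learning classification.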

With `C[C@@]1(O)[C@H](O)[C@@H](CO)O[C@H]1n1cnc2c(N)ncnc21` [2'-C-Methyladenosine], in the test with Danio rerio embryo, the “BMC10 any morphological effect or mortality” value was greater than 100 µM. Besides, the “Cell Health Index” value in the test on HL-60 was found to be 0.266.
`Cc1cc(/C=C/C#N)cc(C)c1Nc1ccnc(Nc2ccc(C#N)cc2)n1` [Rilpivirine]: the “BMC10 any morphological effect or mortality” value with Danio rerio embryo was greater than 100 µM. Further, the “Cell Health Index” value in the test on HL-60 was 0.639.
The corresponding values for `CO[C@@H]1[C@H](OC(=O)/C=C/C=C/C=C/C=C/C(=O)O)CC[C@]2(CO2)[C@H]1[C@@]1(C)O[C@@H]1CC=C(C)C` [Fumagillin] are greater than 100 µM and 0.187.
Regarding `NC(=O)c1ncn([C@@H]2O[C@H](CO)[C@@H](O)[C@H]2O)c1O` [Mizoribine], the “BMC10 any morphological effect or mortality” value in the test on Danio rerio embryo was greater than 100 µM. In addition, the “Cell Health Index” value in the test with HL-60 stood at 0.202.
The corresponding values for `O=C(O)C[C@H](NC(=O)OCc1ccccc1)C(=O)COC(=O)c1c(Cl)cccc1Cl` [Z-Asp-CH2-DCB] are greater than 100 µM and 0.212.
The corresponding values for `Cn1c(CNc2ccc(C(=N)N)cc2)nc2cc(C(=O)N(CCC(=O)O)c3ccccn3)ccc21` [Dabigatran] are greater than 100 µM and 0.137.
The corresponding values for `Cc1cccc(C)c1OCC(=O)N[C@@H](Cc1ccccc1)[C@@H](O)C[C@H](Cc1ccccc1)NC(=O)[C@H](C(C)C)N1CCCNC1=O` [Lopinavir] are greater than 100 µM and 0.752.
Turning to `O=C(/C=C/c1ccc(O)c(O)c1)O[C@@H]1[C@H](O)C[C@@](O)(C(=O)O)C[C@H]1OC(=O)/C=C/c1ccc(O)c(O)c1` [3,4-Dicaffeoylquinic acid], the “BMC10 any morphological effect or mortality” value in the test on Danio rerio embryo was greater than 100 µM. Also, in the test with HL-60, the “Cell Health Index” value came to 0.416.
The corresponding values for `OC[C@H]1O[C@@H](O[C@H]2C(O)O[C@H](CO)[C@@H](O)[C@@H]2O)[C@H](O)[C@@H](O)[C@@H]1O` (some centres undefined) [Sophorose] are greater than 100 µM and 0.187.
The corresponding values for `O=C(/C=C/c1ccc(O)c(O)c1)O[C@@H]1C[C@](O)(C(=O)O)C[C@@H](OC(=O)/C=C/c2ccc(O)c(O)c2)[C@H]1O` [3,5-Dicaffeoylquinic acid] are greater than 100 µM and 0.614.
The corresponding values for `O=C(O[C@@H]1Cc2c(O)cc(O)cc2O[C@@H]1c1cc(O)c(O)c(O)c1)c1cc(O)c(O)c(O)c1` [(-)-Epigallocatechin gallate] are greater than 100 µM and 0.854.
Take `CC(C)Nc1cccnc1N1CCN(C(=O)c2cc3cc(NS(C)(=O)=O)ccc3[nH]2)CC1.CS(=O)(=O)O` [Delavirdine]: the “BMC10 any morphological effect or mortality” value with Danio rerio embryo was greater than 100 µM. In addition, the “Cell Health Index” value with HL-60 amounted to 0.324.
The corresponding values for `O[C@H]1[C@@]2([H])[C@](CC[C@]2([H])[C@@](O)(C)CC/C=C(C)/C)(C)[C@]3(C)CC[C@]4([H])[C@@](CC[C@H](O[C@]5([H])O[C@H](CO)[C@@H](O)[C@H](O)[C@H]5O)C4(C)C)(C)[C@@]3([H])C1` [20(R)-Ginsenoside Rh2] are greater than 100 µM and 0.227.
The corresponding values for `COc1ccc(/C=C/C(=O)O)cc1O` [Isoferulic acid] are greater than 100 µM and 0.171.
The corresponding values for `CO[C@H]1[C@H](O)[C@@H](O)[C@@H](O)[C@H](O)[C@@H]1O` [D-Pinitol] are greater than 100 µM and 0.174.
For `C[C@H](Cn1cnc2c(N)ncnc21)OCP(=O)(O)O` [Tenofovir], the “BMC10 any morphological effect or mortality” value in the test with Danio rerio embryo is greater than 100 µM. Further, the “Cell Health Index” value in the test on HL-60 was 0.229.
The corresponding values for `COc1cc(OC)c2c(=O)nc(-c3cc(C)c(OCCO)c(C)c3)[nH]c2c1` [Apabetalone] are greater than 100 µM and 0.344.
The corresponding values for `CCCCc1nc(Cl)c(C(=O)O)n1Cc1ccc(-c2ccccc2-c2nnn[nH]2)cc1` [Losartan carboxylic acid] are greater than 100 µM and 0.221.
The corresponding values for `O=c1cc(-c2ccc(O)c(O)c2)oc2cc(O[C@@H]3O[C@H](CO)[C@@H](O)[C@H](O)[C@H]3O)cc(O)c12` [Luteoloside] are greater than 100 µM and 0.345.
`O=c1cc(-c2ccccc2)oc2c(O)c(O)ccc12` [7,8-Dihydroxyflavone]: in the test on Danio rerio embryo, the “BMC10 any morphological effect or mortality” value was greater than 100 µM. Moreover, the “Cell Health Index” value in the test with HL-60 came out at 0.507.
The corresponding values for `CC(C)Cn1cnc2c(N)nc3ccccc3c21` [Imiquimod] are greater than 100 µM and 0.269.
The corresponding values for `CC(O)(P(=O)([O-])O)P(=O)([O-])O.[Na+].[Na+]` [Etidronic acid] are greater than 100 µM and 0.198.

These data come from the supplement of paper PMC11821682.
